Where two headings read alike, the source gives them in different places.
Legend:
[1] = Source text: Regarding concentrations and amounts of the various reagents, please refer to Tables 1 and 2 below: […]
[2] = test system: incised wound on the dorsum of adult white rats; conditions: for deposited collagen (amount, appearance) / collagen fibers (density, structure) vs normal dermis: Trichrome dyeing
Protocol: On the dorsum of adult white rats, skin near the limbs which are on the same distance from the median line was incised in about 10 mm long. In a sham control group, 0.1 cc distilled water was injected to the dermis of the incised wound and simply sutured.
On 14th and 56th days from the experiments, tissues of ten adult white rats were taken, fixed in 10% neutral buffer formalin for 24 hours, embedded in paraffin throughout the normal tissue treating process.
With a tissue sample, which was cut perpendicularly to the middle of the wound, the width of the scar by use of image analysis program (Image-Pro version 3.0, Microsoft) under 40 magnification was measured, and the differences between the groups were compared. The result of the measurement was confirmed by Student t-test.
On the dorsum of adult white rats, skin near the limbs which are on the same distance from the median line was incised in about 10 mm long. After incision, the control group was simply sutured.

TGF-β = assay: Experiment of TGF-β inactivation: histology and width of scar after TGF-β injection into incised wound; type: in vivo, bovine; conditions: 8 weeks; Trichrome dyeing
[3] = 2 weeks, hematoxylin-eosin dyeing, ×40

Compound | pH value ([1]; 0.05 mEq) | pH value ([1]; 0.1 mEq) | pH value ([1]; 0.5 mEq) | pH value ([1]; 1.0 mEq) | deposited collagen (amount, appearance) ([2]; 2 weeks) | width of the scar vs control group (histological observation) [2, 3] | collagen fibers (density, structure) vs normal dermis ([2]; 8 weeks) | degree of deposition of inflammatory cells vs control group [2, 3] | scar appearance ([2]; 8 weeks, hematoxylin-eosin dyeing, ×40) | fibroblast cells ([2]; 8 weeks, hematoxylin-eosin dyeing, ×400) | collagen fibers (density, structure) vs normal dermis (TGF-β)
[K+].[OH-] [KOH, potassium hydroxide] | 8.56 | 9.40 | 9.74 | 10.51 | meager compared to that of the control group | thinner than that of the control group | not different from that of the normal dermis nearby |  |  |  | 
[Na+].[OH-] [NaOH, sodium hydroxide] | 8.55 | 9.38 | 9.87 | 10.50 | meager compared to that of the control group | thinner than that of the control group | not different from that of the normal dermis nearby |  |  |  | 
O=C([O-])O.[Na+] [sodium bicarbonate] | 8.83 | 9.22 | 9.82 | 10.36 |  | thinner than that of the control group |  | not much difference | thin and unnoticeable scar | Not many of the fibroblast cells were found | 
TGF-β |  |  |  |  |  |  |  |  |  |  | clearly showed the scar
